Assay results reported in patent US20250368629A1, “FLAVONOID COMPOUNDS AND METHODS AND MATERIALS FOR USING FLAVONOID COMPOUNDS TO TREAT FIBROTIC CONDITIONS” (Mayo Foundation for Medical Education and Research, priority 2022, published 2025).

Experiments:
in vitro = in vitro ADME; conditions: rat
Method: Plasma protein binding assays were also performed (Table 2). Compounds were incubated with rat plasma for 4 hours. The percent of F-4N recovered was analyzed by LC-MS. Warfarin was used as a control for a compound with high plasma protein binding. Analysis performed by Cyprotex (Framingham, MA).

~400 kinases = experiment: Kinome screen (Reaction Biology wild-type kinase panel, ATP competition assay); assay type: biochemical; conditions: 1 μM, Z-scores
Method: FIG. 4A. F-4N was sent to Reaction Biology to be tested against their entire wild-type kinase panel. 1 μM F-4N was tested in an ATP competition assay against 420+ kinases. Z-scores were calculated to identify true hits over noise.
Kinome screening was used to test F-4N (1 μM) against ˜400 kinases.

[1] = Levels of unbound compound in plasma and liver of mice (LC-MS); assay type: in vivo, mouse; conditions: 2 hours and 8 hours after the final dose, oral gavage 7 days
Method: Levels of F-4N in the plasma and liver of mice following F-4N exposure were examined (FIG. 26). Plasma and liver tissue was collected 2 hours and 8 hours after the final dose from the mice subjected to the protocol described in FIG. 24A. Levels of unbound (free) F-4N were analyzed by Cyprotex (Framingham, MA) using LC-MS.

[2] = test system: Human adult lung fibroblasts (passage 3); experiment: Fibroblast activation (TGFβ, alpha-smooth muscle actin); assay type: cell-based; conditions: Homo sapiens, Fibroblast; +2 ng/mL TGFβ, 96 hours, alpha-smooth muscle actin intensity
Method: Human adult lung fibroblasts (passage 3) were plated into 96-well plates and treated with the indicated compound (6-point dose-response) +2 ng/mL TGFβ to stimulated fibroblast activation. Cells were incubated for 96 hours, fixed using 4% PFA, permeabilized using 0.25% triton x-100, and stained using a primary antibody recognizing alpha-smooth muscle actin and a secondary fluorescent conjugated antibody, and DAPI. Cells were then imaged using a 4× objective on a Cytation5 microscope and alpha-smooth muscle actin intensity was quantified using automated software (Biotek Gen5). Data shown are the IC50 values for each compounds efficacy at reducing expression of alpha-smooth muscle actin, calculated from the calculated dose-response curves, N=3 independent.

[3] = test system: low passage proliferating fibroblasts; experiment: Apoptosis of low passage proliferating lung fibroblasts (cleaved caspase-3, DAPI); assay type: cell-based, human; conditions: low passage proliferating fibroblasts from the same donor, 96 hours, 6-point dose-response, N=3
Method: Human adult lung fibroblasts were replicatively passaged until senescence (confirmed by RNA and senescence associated beta galactosidase staining). In a parallel experiment, low passage proliferating fibroblasts from the same donor were compared. Cells were plated into 96-well plates and treated with the indicated compound (6-point dose-response) and incubated for 96 hours. Cells were then fixed using 4% PFA, permeabilized using 0.25% triton x-100, and nuclear stained using a primary antibody for cleaved caspase-3, secondary fluorescence conjugated antibody, and DAPI. Cells were then imaged using a 4× objective on a Cytation5 microscope and cell counts were quantified using automated software (Biotek Gen5). Data shown are the EC50 values calculated for each compounds efficacy to induce apoptosis in senescence vs. proliferating lung fibroblasts, from the calculated dose-response curves, N=3 independent experiments.

Mdr2-/- mice = experiment: Mdr2-/- mouse model of PSC with established liver fibrosis, i.p. treatment; assay type: in vivo; conditions: 10 mg/kg/daily i.p. for 14 days
Method: FIG. 6. Biochemical and histological examination of fibrosis in Mdr2^−/− mice treated with vehicle or F-4N. Mdr2^−/− mice (18-20 weeks old) with established liver fibrosis were treated with F-4N (10 mg/kg/daily i.p. n=10) or vehicle (i.p. n=10) for 14 days, then sacrificed the next day. Liver tissue and serum were collected for analysis. Left panel. […] Right panels.
Hydroxyproline content was measured using a hydroxyproline assay kit (Biovision) according to the manufacturer's instructions with slight modification. The liver tissues were weighed, homogenized in sterile water (10 mg of tissue per 100 μL H2O) and hydrolyzed in 12 M HCl in a pressure-tight, Teflon capped vial at 120° C. for 3 hours followed by filtration through a 45 μm Spin-X Centrifuge Tube filter (Corning). Ten μL of the hydrolyzed samples was dried in a Speed-Vac for 2 hours, followed by incubation with 100 μL of Chloramine T reagent for 5 minutes at room temperature and 100 μL of 4-(dimethylamino)benzaldehyde (DMAB) for 90 minutes at 60° C. The absorbance of oxidized hydroxyproline was determined at 560 nm. Hydroxyproline concentrations were calculated from a standard curve generated using known concentrations of trans-4-hydroxyl-L-proline. The total amount of protein isolated from the weighed tissues was determined by using a protein assay kit (Bio-Rad, absorbance at 595 nm). The amount of collagen was expressed in μg/mg total protein.
The slides were then stained with a solution containing 0.1% picrosirius red (Direct Red 80) and 0.1% fast green (counterstain) in saturated aqueous solution of picric acid, for 60 minutes at room temperature, followed by one wash in distilled water, de-hydration in 3 changes of 100% EtOH, clear in xylene and mount in resinous medium.
Serum alanine aminotransferase (ALT), alkaline phosphatase (ALP) and total bile acids were measured using a commercially available veterinary chemistry analyzer (VetScan 2, Abaxis).
RNA isolation using RNeasy Plus Mini Kit (Qiagen) according to the manufacturer's instructions. Isolated RNA (250 ng) was then used to synthesize cDNA using SuperScript VILO (Invitrogen). Quantitative PCR was performed using FastStart Essential DNA Green Master (Roche) and analyzed using a LightCycler 96 (Roche). Data are expressed as a fold change by ΔΔCt relative to glyceraldehyde-3-phosphate dehydrogenase (GAPDH).

STK17A = molecular target: T1, STK17A (Homo sapiens, UniProt Q9UEE5); experiment: Kinase dose response curve on STK17A; assay type: biochemical; conditions: FIG. 4A, read-out: half maximal inhibitory concentration (IC50) on STK17A
T1 construct: purchased Reaction Biology
T1 sequence (Q9UEE5 1-414): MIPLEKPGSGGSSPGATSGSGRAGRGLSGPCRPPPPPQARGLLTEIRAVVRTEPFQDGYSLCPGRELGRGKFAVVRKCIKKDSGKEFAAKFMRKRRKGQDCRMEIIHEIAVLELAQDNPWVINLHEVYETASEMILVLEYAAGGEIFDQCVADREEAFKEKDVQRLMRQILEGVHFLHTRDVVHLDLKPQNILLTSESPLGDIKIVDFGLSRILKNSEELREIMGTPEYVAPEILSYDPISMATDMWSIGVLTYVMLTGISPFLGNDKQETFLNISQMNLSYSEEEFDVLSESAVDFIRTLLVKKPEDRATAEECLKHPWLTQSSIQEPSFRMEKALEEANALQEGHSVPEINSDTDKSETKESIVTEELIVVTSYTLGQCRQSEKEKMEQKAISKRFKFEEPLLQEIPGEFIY
Method: FIGS. 4A-4B show mechanism of action of F-4N. […] Dose response curves on STK17A and STK17B show half maximal inhibitory concentration (IC50) values of ˜200 nM. […] FIG. 4A. F-4N was sent to Reaction Biology to be tested against their entire wild-type kinase panel. 1 μM F-4N was tested in an ATP competition assay against 420+ kinases. Z-scores were calculated to identify true hits over noise.

In the case of `O=c1c(O)c(-c2ccc(OCc3ccncc3)cc2)oc2ccccc12` [F—4N], the recovery at 4 h, 5 μM (in vitro) is reported as 100%, the Plasma bound (in vitro; 4 h, 5 μM) is reported as 99% and the “plasma protein binding (in words)” value (in vitro; plasma) is reported as “high”. The Plasma unbound (in vitro; plasma, 4 h, 5 μM) was 0.94%, the “Putative targets identified by kinome screening” value (~400 kinases) was “STK17A (also known as DRAK1), STK17B (also known as DRAK2), and MYLK4, AURKB, FLT3, and KIT” and the “levels of unbound (free) compound in plasma and liver” value [1] was “higher in liver than plasma”. The EC50 [2] was 1.8 µM, the “Proliferating fibroblast apoptosis EC50” value [3] was “inactive” and the “reduction of liver collagen content (hydroxyproline assay) compared to vehicle control” value (Mdr2-/- mice) was ~40%. For the same compound, the “Liver function tests: ALT, ALP and serum bile acid values” (Mdr2-/- mice; compared to vehicle) was “significantly reduced”, the “RT-PCR of whole liver RNA: Col1a1, Il6, Ccl2, Cdkn1a, Cdkn2a” value (Mdr2-/- mice; compared to vehicle) was “significantly reduced” and the “Picrosirius red staining of liver collagen fibers” value (Mdr2-/- mice; particularly portal-to-portal areas) was “reduction of collagen fibers”. The IC50 (STK17A) was ~0.2 µM.
